In experiment [1] the target is T1, Recombinant full-length human EP (Enteropeptidase) (Homo sapiens, UniProt P98073).
T1 construct: Recombinant full-length human EP (PeproTech, Cat #450-48C); purchased PeproTech 450-48C
Kind of experiment: In vitro inhibition potencies against Enteropeptidase (EP), fluorescent peptide GDDDDK-naphthylamine substrate. The conditions noted are these: 300 μM substrate, 1.25 nM EP; for inhibition at 0.1 µM: compound 0.1 μM; for inhibition at 1 µM: compound 1 μM; for inhibition at 10 µM: compound 10 μM. The format is biochemical.

In another experiment the target is T2, Bovine trypsin (Bos taurus, UniProt P00760).
T2 construct: purchased Sigma-Aldrich T1426
T2 sequence (P00760 24-246): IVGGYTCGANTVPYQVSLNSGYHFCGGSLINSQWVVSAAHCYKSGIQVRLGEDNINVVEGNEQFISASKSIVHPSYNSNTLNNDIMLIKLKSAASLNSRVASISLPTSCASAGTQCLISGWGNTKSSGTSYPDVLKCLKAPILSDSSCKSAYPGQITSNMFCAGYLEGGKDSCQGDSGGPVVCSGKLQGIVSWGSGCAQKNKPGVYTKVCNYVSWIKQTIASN
The experiment in a line: Biochemical Assay of Trypsin (T), H-D-CHA-AR-AMC substrate. The conditions noted are these: 15 μM substrate, 0.025 nM Trypsin; for inhibition at 0.1 µM: compound 0.1 μM; for inhibition at 1 µM: compound 1 μM; for inhibition at 10 µM: compound 10 μM.

One may read the inhibition as the change of the read-out against control, counted positive when it falls.

T1 sequence (P98073 whole entry): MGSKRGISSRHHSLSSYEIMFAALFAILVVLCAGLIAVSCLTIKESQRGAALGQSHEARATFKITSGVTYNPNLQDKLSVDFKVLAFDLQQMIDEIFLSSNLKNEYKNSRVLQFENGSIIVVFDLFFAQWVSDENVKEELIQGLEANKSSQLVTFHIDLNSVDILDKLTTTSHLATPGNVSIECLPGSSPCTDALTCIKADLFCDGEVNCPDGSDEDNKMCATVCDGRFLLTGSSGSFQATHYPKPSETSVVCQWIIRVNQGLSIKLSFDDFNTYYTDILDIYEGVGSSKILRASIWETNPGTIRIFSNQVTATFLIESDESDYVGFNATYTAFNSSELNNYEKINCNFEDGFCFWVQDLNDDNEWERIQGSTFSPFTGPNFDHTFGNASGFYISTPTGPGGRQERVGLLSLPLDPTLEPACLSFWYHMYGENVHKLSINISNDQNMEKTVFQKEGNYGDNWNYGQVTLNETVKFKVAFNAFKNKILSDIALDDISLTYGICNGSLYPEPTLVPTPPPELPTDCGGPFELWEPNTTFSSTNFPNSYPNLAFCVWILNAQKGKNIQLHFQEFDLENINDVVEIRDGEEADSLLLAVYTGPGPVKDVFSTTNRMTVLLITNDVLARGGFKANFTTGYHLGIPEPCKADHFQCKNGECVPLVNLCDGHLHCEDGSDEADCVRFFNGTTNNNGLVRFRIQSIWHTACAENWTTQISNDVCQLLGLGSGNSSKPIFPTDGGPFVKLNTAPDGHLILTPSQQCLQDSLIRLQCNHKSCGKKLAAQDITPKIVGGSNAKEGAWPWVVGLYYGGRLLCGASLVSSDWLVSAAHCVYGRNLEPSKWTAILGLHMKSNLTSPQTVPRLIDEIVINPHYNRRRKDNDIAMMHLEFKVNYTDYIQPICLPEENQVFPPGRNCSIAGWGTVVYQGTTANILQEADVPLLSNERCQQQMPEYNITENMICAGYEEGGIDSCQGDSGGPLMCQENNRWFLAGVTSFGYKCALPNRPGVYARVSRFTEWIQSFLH

With `N=C(N)Nc1ccc(C(=O)Oc2ccc(C3OC(=O)NC3=O)n3ncnc23)cc1` (stereo not drawn) [Compound 17, 5-(2,4-dioxooxazolidin-5-yl)-[1,2,4]triazolo[1,5-a]pyridin-8-yl 4-guanidinobenzoate], in experiment [1], the inhibition at 0.1 µM is 73%, the inhibition at 1 µM is 101% and the inhibition at 10 µM came to 100%. On Bovine trypsin, the inhibition at 0.1 µM came to 99.8%, the inhibition at 1 µM is 100% and the inhibition at 10 µM stood at 100%.
On to `N=C(N)Nc1ccc(C(=O)Oc2ccc(CC(=O)O)n3ncnc23)c(F)c1` [Compound 21, 2-(8-(2-fluoro-4-guanidinobenzoyloxy)-[1,2,4]triazolo[1,5-a]pyridin-5-yl)acetic acid], for which, in experiment [1], the inhibition at 0.1 µM was determined as 99.4%, the inhibition at 1 µM turned out to be 100% and the inhibition at 10 µM was 100%. On Bovine trypsin, the inhibition at 0.1 µM was 97.1%, the inhibition at 1 µM came out at 99.7% and the inhibition at 10 µM came out at 100%.
On to `N=C(N)Nc1ccc(C(=O)Oc2ccc(CC(=O)O)n3ncnc23)c(Cl)c1` [Compound 18, 2-(8-(2-chloro-4-guanidinobenzoyloxy)-[1,2,4]triazolo[1,5-a]pyridin-5-yl)acetic acid], for which, in experiment [1], the inhibition at 0.1 µM was 81.2%, the inhibition at 1 µM stood at 100% and the inhibition at 10 µM stood at 100%. At Bovine trypsin, the inhibition at 0.1 µM worked out at 43.5%, the inhibition at 1 µM turned out to be 97.6% and the inhibition at 10 µM turned out to be 99.9%.

(Values after patent publication US20220281866A1, “5,8-DISUBSTITUTED-[1,2,4]TRIAZOLO[1,5-A]PYRIDINYL AND 5,8-DISUBSTITUTED-IMIDAZO[1,2-A]PYRIDINE DERIVATIVES USEFUL AS INHIBITORS OF ENTEROPEPTIDASE” (Janssen Pharmaceutica NV, priority 2019, published 2022).)
